This is an account of results in patent US8809347B2, “Bicyclic aryl and bicyclic heteroaryl substituted triazoles useful as AXL inhibitors” (Rigel Pharmaceuticals, Inc., priority 2006, dated 2014).

A value given as a limit tells only on which side of the number the result lay.

The target of this experiment is T1, Axl (Homo sapiens, UniProt P30530).
T1 construct: Cells: Hela cells; endogenous in cells; host or cells: HeLa cells
T1 sequence (P30530 26-894): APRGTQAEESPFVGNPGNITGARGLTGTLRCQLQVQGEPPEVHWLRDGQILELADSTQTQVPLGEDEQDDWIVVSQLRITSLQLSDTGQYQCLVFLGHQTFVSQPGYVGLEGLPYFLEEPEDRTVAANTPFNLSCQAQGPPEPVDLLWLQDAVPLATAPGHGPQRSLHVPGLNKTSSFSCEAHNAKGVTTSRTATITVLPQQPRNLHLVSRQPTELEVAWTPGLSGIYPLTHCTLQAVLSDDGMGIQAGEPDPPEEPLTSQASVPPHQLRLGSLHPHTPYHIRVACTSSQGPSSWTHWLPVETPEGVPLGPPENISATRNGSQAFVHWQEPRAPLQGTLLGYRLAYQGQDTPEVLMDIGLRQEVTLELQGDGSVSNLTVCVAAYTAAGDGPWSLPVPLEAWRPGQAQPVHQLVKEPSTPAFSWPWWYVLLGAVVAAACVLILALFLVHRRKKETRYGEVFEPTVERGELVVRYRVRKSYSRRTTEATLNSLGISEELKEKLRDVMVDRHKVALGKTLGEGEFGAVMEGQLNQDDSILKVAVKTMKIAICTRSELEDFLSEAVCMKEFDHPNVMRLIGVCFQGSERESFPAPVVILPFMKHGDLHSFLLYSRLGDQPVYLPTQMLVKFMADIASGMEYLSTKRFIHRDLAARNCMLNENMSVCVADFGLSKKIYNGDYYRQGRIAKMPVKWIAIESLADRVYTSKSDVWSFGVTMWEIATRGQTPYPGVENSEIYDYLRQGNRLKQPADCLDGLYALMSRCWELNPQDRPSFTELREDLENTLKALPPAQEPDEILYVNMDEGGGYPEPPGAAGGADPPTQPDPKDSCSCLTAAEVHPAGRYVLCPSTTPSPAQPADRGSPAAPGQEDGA
Put plainly: Phospho-Akt in-cell Western assay (inhibition of Axl activity). The format is cell-based. Conditions: Hela cells; 1 hr pre-treatment; stimulation by Axl-antibody cross-linking; phospho-Akt chemiluminescence normalized to relative cell number. Here is the method:
The compounds of the invention were tested in the following assay for their ability to inhibit Axl activity.
Phospho-Akt in-Cell Western Assay
• Cell culture plate: 96 well assay plate (Corning 3610), white, clear bottom, tissue-culture treated. • Cells: Hela cells. • Starvation medium: For Axl stimulation: 0.5% FCS (fetal calf serum) in DMEM, plus Axl/Fc (extracellular domain of AXL fused to immunoglobulin Fc region) (R&D, 154-AL) 500 ng/mL. • For EGF (epidermal growth factor) stimulation: 0.5% FCS in DMEM (Dulbecco's modified Eagles medium). • Poly-L-Lysine 0.01% solution (the working solution): […], dilute In PBS (phosphate buffered saline). • Axl antibody cross-linking: • 1st: Mouse anti-Axl (R&D, MAB154). • 2nd: Biotin-SP-conjugated AffiniPure goat anti-mouse IgG (H+ L) (Jackson ImmunoResearch #115-065-003). • Fixing buffer: 4% formaldehyde in PBS. • Wash buffer: 0.1% TritonX-100 in PBS. • Quenching buffer: 3% H2O2, 0.1% Azide in wash buffer, Azide and hydrogen peroxide (H2O2) are added fresh. • Blocking buffer: 5% BSA in TBST (tris buffered saline plus 0.1% Tween 20). • Primary antibody: Rabbit anti-human Phospho-Akt antibody (Cell Signaling 9271): 1×250 diluted in blocking buffer. • Secondary antibody: HRP (horse radish peroxidase)-conjugated Goat anti-Rabbit secondary, stock solution: Jackson ImmunoResearch (Goat anti-Rabbit HRP, #111-035-144) 1:1 diluted in glycerol, store at −20° C. The working solution: 1×2000 dilution of stock in blocking buffer. • Chemiluminescent working solution (Pierce, 37030): SuperSignal ELISA (enzyme linked immunosorbant assay) Pico Chemiluminescent substrate. • Crystal Violet solution: Stock: 2.5% Crystal violet in methanol, filtered and kept at ambient temperature. The working solution: dilute the stock 1:20 with PBS immediately before use. • 10% SDS: working solution: 5% SDS (sodium dodecylsulfate), diluted in PBS Methods: Day 1:
A 96 well TC (tissue culture treated) plate was coated with 10 μg/mL poly-L-Lysine at 37° C. for 30 min, washed twice with PBS, and air-dried for 5 minutes before cells were added. Hela cells were seeded at 10,000 cells/well and the cells were starved in 100 μL starvation medium containing Axl/Fc for 24 hrs.
The cells were pre-treated with test compounds by adding 100 μL of 2× test compound to the starvation medium on the cells. The cells were incubated at 37° C. for 1 hr before stimulation.
The cells were stimulated by Axl-antibody cross-linking as follows: A 5× 1st/2nd Axl antibody mixture was made (37.5 μg/mL 1st/100 μg/mL 2nd) in starvation medium and nutated at 4° C. with thorough mixing for 1-2 hours for clustering. The resulting mix was warmed to 37° C. 50 μL of 5× Axl 1st/2nd of antibody cluster was added to the cells and the cells were incubated at 37° C. for 5 min.
After 5 minutes stimulation, the plate was flicked to remove medium and the plate was tapped onto paper towels. Formaldehyde (4.0% in PBS, 100 μL) was added to fix the cells and the cells were incubated at ambient temperature for 20 min without shaking.
The cells were washed with a plate washer buffer to remove the formaldehyde solution. The plate was flicked to removed excess wash buffer and tapped onto paper towels. Quenching buffer (100 μL) was added to each well and the cells were incubated at ambient temperature for 20 minutes without shaking.
The cells were washed with a plate washer buffer to remove the quenching buffer. Blocking buffer (100 μL) was added and the cells were incubated at ambient temperature for at least an hour with gentle shaking.
The cells were washed with a plate washer buffer and diluted primary antibody (50 μL) was added to each well (blocking buffer was added to the negative control wells instead). The plates were incubated overnight at 4° C. with gentle shaking.
The wash buffer was removed, diluted secondary antibody (100 μL) was added, and the cells were incubated at ambient temperature for 1 hour with gentle shaking. […]
One may read the IC50 as the midpoint of a concentration-inhibition curve. As for `Nc1nc(Nc2ccc3c(c2)CCCN(C2CCCC2)CC3)nn1-c1ncnc2ccc(F)cc12` [Compound 31, N^3-(3-cyclopentyl-1,2,3,4,5,6-hexahydrobenzo[d]azocin-8-yl)-1-(6-fluoroquinazolin-4-yl)-1H-1,2,4-triazole-3,5-diamine], the IC50 is < 1000 nM.
With `Nc1nc(Nc2ccc3c(c2)CCN(C2CCCC2)CCC3)nn1-c1ccc(C(F)(F)F)cn1` [Compound 30, N^3-(3-cyclopentyl-1,2,3,4,5,6-hexahydrobenzo[d]azocin-9-yl)-1-(5-(trifluoromethyl)pyridin-2-yl)-1H-1,2,4-triazole-3,5-diamine] the figure was < 1000 nM.
Under `COc1cc2ncnc(-n3nc(Nc4ccc5c(c4)CCCN(C4CC6CCC4C6)CC5)nc3N)c2cc1OC` (centres unmarked) [Compound 39, N^3-(3-(bicyclo[2.2.1]heptan-2-yl)-1,2,3,4,5,6-hexahydrobenzo[d]azocin-8-yl)-1-(6,7-dimethoxyquinazolin-4-yl)-1H-1,2,4-triazole-3,5-diamine] stands < 1000 nM; under `COc1cc2ncnc(-n3nc(Nc4ccc5c(c4)CCCN(C4CCCC4)CC5)nc3N)c2cc1OC` [Compound 27, N^3-(3-cyclopentyl-1,2,3,4,5,6-hexahydro-benzo[d]azocin-8-yl)-1-(6,7-dimethoxy-quinazolin-4-yl)-1H-[1,2,4]triazole-3,5-diamine], < 1000 nM.
In the case of `Nc1nc(Nc2ccc(N3CCN(C4CCCCC4)CC3)c(Cl)c2)nn1-c1ncc2c(n1)CCCCCC2` [Compound 8, N^3-(3-chloro-4-(4-cyclohexylpiperazin-1-yl)phenyl)-1-(5,6,7,8,9,10-hexahydrocycloocta[d]pyrimidin-2-yl)-1H-1,2,4-triazole-3,5-diamine], the IC50 was < 1000 nM.
Under `Nc1nc(Nc2ccc(N3CCN(C4CC5CCC4C5)CC3)cc2)nn1-c1ncc2c(n1)CCCCCC2` (centres unmarked) [Compound 3, N^3-(4-(4-(bicyclo[2.2.1]heptan-2-yl)piperazin-1-yl)phenyl)-1-(5,6,7,8,9,10-hexahydrocycloocta[d]pyrimidin-2-yl)-1H-1,2,4-triazole-3,5-diamine] stands < 1000 nM; under `Cc1csc2c(-n3nc(Nc4ccc5c(c4)CCCN(C4CCCC4)CC5)nc3N)nc(Cl)nc12` [Compound 26, 1-(2-chloro-7-methylthieno[3,2-d]pyrimidin-4-yl)-N^3-(3-cyclopentyl-1,2,3,4,5,6-hexahydrobenzo[d]azocin-8-yl)-1H-1,2,4-triazole-3,5-diamine], < 1000 nM.
Under `CN(C)[C@@H]1CCN(c2ccc(Nc3nc(N)n(-c4ncc5c(n4)CCCCCC5)n3)cc2)C1` [Compound 6, (R)—N^3-(4-(3-(dimethylamino)pyrrolidin-1-yl)phenyl)-1-(5,6,7,8,9,10-hexahydrocycloocta[d]pyrimidin-2-yl)-1H-1,2,4-triazole-3,5-diamine] stands 1000 to 10000 nM; under `Cc1csc2c(-n3nc(Nc4ccc5c(c4)CC(N4CCCC4)CCCC5)nc3N)nc(Cl)nc12` (centres unmarked) [Compound 29, 1-(2-chloro-7-methylthieno[3,2-d]pyrimidin-4-yl)-N^3-(9-(pyrrolidin-1-yl)-5,6,7,8,9,10-hexahydrobenzo[8]annulen-2-yl)-1H-1,2,4-triazole-3,5-diamine], < 1000 nM; under `CS(=O)(=O)N1CCN(c2ccc(Nc3nc(N)n(-c4ncc5c(n4)CCCCCC5)n3)cc2F)CC1` [Compound 19, N^3-(3-fluoro-4-(4-(methylsulfonyl)piperazin-1-yl)phenyl)-1-(5,6,7,8,9,10-hexahydrocycloocta[d]pyrimidin-2-yl)-1H-1,2,4-triazole-3,5-diamine], 1000 to 10000 nM.
Under `Nc1nc(Nc2ccc(N3CCN(C4CCCCC4)CC3)cc2)nn1-c1cc2c(nn1)CCCCCC2` [Compound 16, N^3-(4-(4-cyclohexylpiperazin-1-yl)phenyl)-1-(5,6,7,8,9,10-hexahydrocycloocta[c]pyridazin-3-yl)-1H-1,2,4-triazole-3,5-diamine] stands < 1000 nM; under `Cc1csc2c(-n3nc(Nc4cnc5c(c4)CCC(N4CCCC4)CCC5)nc3N)ncnc12` (centres unmarked) [Compound 40, 1-(7-methylthieno[3,2-d]pyrimidin-4-yl)-N^3-(7-(pyrrolidin-1-yl)-5,6,7,8,9,10-hexahydrocycloocta[b]pyridin-3-yl)-1H-1,2,4-triazole-3,5-diamine], < 1000 nM; under `CC(C)(COc1ccc(Nc2nc(N)n(-c3ncc4c(n3)CCCCCC4)n2)cc1)N1CCCC1` [Compound 15, 1-(5,6,7,8,9,10-hexahydrocycloocta[d]pyrimidin-2-yl)-N^3-(4-(2-methyl-2-(pyrrolidin-1-yl)propoxy)phenyl)-1H-1,2,4-triazole-3,5-diamine], < 1000 nM.
Regarding `Nc1nc(Nc2ccc(OCCN3CCCC3)cc2)nn1-c1cc(-c2ccccc2)c2c(n1)CCCCCC2` [Compound 47, N^3-(4-(2-(pyrrolidin-1-yl)ethoxy)phenyl)-1-(4-phenyl-5,6,7,8,9,10-hexahydrocycloocta[b]-pyridin-2-yl)-1H-1,2,4-triazole-3,5-diamine], the IC50 fell in the range of 1000 to 10000 nM.
With `Cc1csc2c(-n3nc(Nc4cnc5c(c4)CCC(N4CCN(C)CC4)CCC5)nc3N)ncnc12` (centres unmarked) [Compound 44, N^3-(7-(4-methylpiperazin-1-yl)-5,6,7,8,9,10-hexahydrocycloocta[b]pyridin-3-yl)-1-(7-methylthieno[3,2-d]pyrimidin-4-yl)-1H-1,2,4-triazole-3,5-diamine] the figure was < 1000 nM; with `COc1cc2ncnc(-n3nc(Nc4ccc5c(c4)C(=O)NCCCC5)nc3N)c2cc1OC` [Compound 50, N^3-(1-oxo-1,2,3,4,5,6-hexahydrobenzo[c]azocin-9-yl)-1-(6,7-dimethoxyquinazolin-4-yl)-1H-1,2,4-triazole-3,5-diamine], < 1000 nM.
Under `CN1CCCN(c2ccc(Nc3nc(N)n(-c4ncc5c(n4)CCCCCC5)n3)cc2F)CC1` [Compound 4, N^3-(3-fluoro-4-(4-methyl-1,4-diazepan-1-yl)phenyl)-1-(5,6,7,8,9,10-hexahydrocycloocta[d]pyrimidin-2-yl)-1H-1,2,4-triazole-3,5-diamine] stands < 1000 nM.
